Source: patent US6440437B1, “Wet wipes having skin health benefits” (Kimberly-Clark Worldwide, Inc., priority 2000, dated 2002)

Test system: EpiDerm™ skin model (Epi-200)
Test: EpiDerm skin model: barrier against trypsin and IL-1α pro-inflammatory response
Type: cell-based, human
Details: 15 microliters formulation 30 min before 10 microliters of 200 μg/ml trypsin; media assayed by ELISA after 6 hours
Experimental: The EpiDerm™ skin model (Epi-200, Mattek Corporation, Ashland, Mass.) was used to assess the ability of the lipid-enriched wet wipe formulations to enhance skin barrier against permeation of trypsin (a skin irritating, fecal enzyme) and prevent a Interleukin-1α (IL-1α) response which is a measure of inflammation.
Test formulations (15 microliters) were added to the surface of the EpiDerm™ skin model and incubated for 30 minutes at 37° C., 5% CO2 prior to dosing with the fecal enzyme, trypsin. The study was conducted using Epi-200 assay media devoid of hydrocortisone and pH indicator that was prepared by the manufacturer. After 30 minutes, the underlying media was removed and replaced with fresh, pre-warmed media followed by application of 10 microliters of 200 μg/ml of trypsin. The skin wells were incubated for 6 hours before the underlying media was removed and stored for further analysis. […] Also, the amount of IL-1α in the media was measured using commercially available ELISA kits (Quantikine™ Human IL-1α Immunoassay, R&D Systems, Minneapolis, Minn.) specific for IL-1α to assess the ability of the formulations to prevent a pro-inflammatory response by the enzyme compared to the no treatment control.

Substance: trypsin
- Irritation: Pro-inflammatory Response (IL-1α), Average IL-1α: 108.7
